Data as given in ChEMBL document CHEMBL3885881, “DrugMatrix”.

Organism: Rattus norvegicus
Assay: DrugMatrix - Regimen: Daily Repeat
Format: toxicity, organism-based, Sprague-Dawley
Parameters: regimen Daily Repeat, gender Male, age 6-8 weeks
Details: in vivo, po, 150 mg/kg, route oral GAVAGE, dose level Low, vehicle 100 % WATER; for ABSOLUTE BASOPHIL / ABSOLUTE EOSINOPHIL / ABSOLUTE LYMPHOCYTE / ABSOLUTE MONOCYTE / ABSOLUTE SEGMENTED NEUTROPHIL / BASOPHIL / EOSINOPHIL / ERYTHROCYTE COUNT / HEMATOCRIT / HEMOGLOBIN / LEUKOCYTE COUNT / LYMPHOCYTE / MEAN CORPUSCULAR HEMOGLOBIN / MEAN CORPUSCULAR HEMOGLOBIN CONCENTRATION / MEAN CORPUSCULAR VOLUME / MONOCYTE / NEUTROPHIL / NUCLEATED RED BLOOD CELLS / PLATELET COUNT: tissue Blood; for ALANINE AMINOTRANSFERASE / ALBUMIN / ALKALINE PHOSPHATASE / ASPARTATE AMINOTRANSFERASE / BLOOD UREA NITROGEN / CARBON DIOXIDE / CHLORIDE / CHOLESTEROL / CREATINE PHOSPHOKINASE / CREATININE / GLUCOSE / LACTATE DEHYDROGENASE / LIPASE / PHOSPHORUS / POTASSIUM / SODIUM / TOTAL BILIRUBIN / TOTAL PROTEIN / URIC ACID: tissue Plasma

Cc1c(N(C)CS(=O)(=O)[O-])c(=O)n(-c2ccccc2)n1C.[Na+] [DIPYRONE SODIUM]
ABSOLUTE BASOPHIL (72 h, time 3 day): 0 CELLS/uL
ABSOLUTE EOSINOPHIL (72 h, time 3 day): 55.67 CELLS/uL
ABSOLUTE LYMPHOCYTE (72 h, time 3 day): 16817.67 CELLS/uL
ABSOLUTE MONOCYTE (72 h, time 3 day): 567 CELLS/uL
ABSOLUTE SEGMENTED NEUTROPHIL (72 h, time 3 day): 1026.33 CELLS/uL
BASOPHIL (72 h, time 3 day): 0%
EOSINOPHIL (72 h, time 3 day): 0.33%
ERYTHROCYTE COUNT (72 h, time 3 day): 5.75 x10E6/uL
HEMATOCRIT (72 h, time 3 day): 36.5%
HEMOGLOBIN (72 h, time 3 day): 13.47 G/DL
LEUKOCYTE COUNT (72 h, time 3 day): 18.47 x10E3/uL
LYMPHOCYTE (72 h, time 3 day): 91%
MEAN CORPUSCULAR HEMOGLOBIN (72 h, time 3 day): 23.47 pg
MEAN CORPUSCULAR HEMOGLOBIN CONCENTRATION (72 h, time 3 day): 36.9 G/DL
MEAN CORPUSCULAR VOLUME (72 h, time 3 day): 63.5 fL
MONOCYTE (72 h, time 3 day): 3%
NEUTROPHIL (72 h, time 3 day): 5.67%
NUCLEATED RED BLOOD CELLS (72 h, time 3 day): 0 /100WBC
PLATELET COUNT (72 h, time 3 day): 1215.67 x10E3/uL
ALANINE AMINOTRANSFERASE (72 h, time 3 day): 44.67 u/L
ALBUMIN (72 h, time 3 day): 4.4 G/DL
ALKALINE PHOSPHATASE (72 h, time 3 day): 361 u/L
ASPARTATE AMINOTRANSFERASE (72 h, time 3 day): 86 u/L
BLOOD UREA NITROGEN (72 h, time 3 day): 16 mg/dL
CARBON DIOXIDE (72 h, time 3 day): 33 mmol/L
CHLORIDE (72 h, time 3 day): 100.33 MEQ/L
CHOLESTEROL (72 h, time 3 day): 87 mg/dL
CREATINE PHOSPHOKINASE (72 h, time 3 day): 700 u/L
CREATININE (72 h, time 3 day): 0.19 mg/dL
GLUCOSE (72 h, time 3 day): 142.33 mg/dL
LACTATE DEHYDROGENASE (72 h, time 3 day): 212 u/L
LIPASE (72 h, time 3 day): 9.33 u/L
PHOSPHORUS (72 h, time 3 day): 13.33 mg/dL
POTASSIUM (72 h, time 3 day): 6.6 MEQ/L
SODIUM (72 h, time 3 day): 143.13 MEQ/L
TOTAL BILIRUBIN (72 h, time 3 day): 0.2 mg/dL
TOTAL PROTEIN (72 h, time 3 day): 6.2 G/DL
URIC ACID (72 h, time 3 day): 1.67 mg/dL
ABSOLUTE BASOPHIL (120 h, time 5 day): 0 CELLS/uL
ABSOLUTE EOSINOPHIL (120 h, time 5 day): 0 CELLS/uL
ABSOLUTE LYMPHOCYTE (120 h, time 5 day): 8863.67 CELLS/uL
ABSOLUTE MONOCYTE (120 h, time 5 day): 61.67 CELLS/uL
ABSOLUTE SEGMENTED NEUTROPHIL (120 h, time 5 day): 541.33 CELLS/uL
BASOPHIL (120 h, time 5 day): 0%
EOSINOPHIL (120 h, time 5 day): 0%
ERYTHROCYTE COUNT (120 h, time 5 day): 5.85 x10E6/uL
HEMATOCRIT (120 h, time 5 day): 36.3%
HEMOGLOBIN (120 h, time 5 day): 13.67 G/DL
LEUKOCYTE COUNT (120 h, time 5 day): 9.47 x10E3/uL
LYMPHOCYTE (120 h, time 5 day): 93.33%
MEAN CORPUSCULAR HEMOGLOBIN (120 h, time 5 day): 23.37 pg
MEAN CORPUSCULAR HEMOGLOBIN CONCENTRATION (120 h, time 5 day): 37.63 G/DL
MEAN CORPUSCULAR VOLUME (120 h, time 5 day): 62 fL
MONOCYTE (120 h, time 5 day): 0.67%
NEUTROPHIL (120 h, time 5 day): 6%
NUCLEATED RED BLOOD CELLS (120 h, time 5 day): 0 /100WBC
PLATELET COUNT (120 h, time 5 day): 1342 x10E3/uL
ALANINE AMINOTRANSFERASE (120 h, time 5 day): 52.67 u/L
ALBUMIN (120 h, time 5 day): 4.23 G/DL
ALKALINE PHOSPHATASE (120 h, time 5 day): 379 u/L
ASPARTATE AMINOTRANSFERASE (120 h, time 5 day): 72.33 u/L
BLOOD UREA NITROGEN (120 h, time 5 day): 16.33 mg/dL
CARBON DIOXIDE (120 h, time 5 day): 34.67 mmol/L
CHLORIDE (120 h, time 5 day): 100.67 MEQ/L
CHOLESTEROL (120 h, time 5 day): 67 mg/dL
CREATINE PHOSPHOKINASE (120 h, time 5 day): 175.33 u/L
CREATININE (120 h, time 5 day): 0.2 mg/dL
GLUCOSE (120 h, time 5 day): 135 mg/dL
LACTATE DEHYDROGENASE (120 h, time 5 day): 123 u/L
LIPASE (120 h, time 5 day): 8.67 u/L
PHOSPHORUS (120 h, time 5 day): 12.43 mg/dL
POTASSIUM (120 h, time 5 day): 6.37 MEQ/L
SODIUM (120 h, time 5 day): 145.67 MEQ/L
TOTAL BILIRUBIN (120 h, time 5 day): 0.17 mg/dL
TOTAL PROTEIN (120 h, time 5 day): 6.17 G/DL
URIC ACID (120 h, time 5 day): 1.3 mg/dL
